# Data reported in patent US12329786B2, “Regulate gut microbiota to treat neurodegenerative disorders” (California Institute of Technology, priority 2016, dated 2025).
# Target: T1, human αSyn (Homo sapiens, UniProt P37840)
# T1 construct: made in house
# Assay: In vitro αSyn aggregation kinetics by ThT fluorescence
# Format: biochemical
# Details: range of concentrations, singly or in mixtures
# Method: The ThT fluorescence signal was recorded using a microplate reader (Fluostar OPTIMA Microplate reader, BMG Labtech) with the excitation filter of 440±10 nm and an emission filter of 490±10 nm under intermittent shaking conditions at 37 °C. The kinetic curves were normalized to the fluorescence maxima and the time to reach half-maximum intensity quantified. For atomic force microscopy (AFM) imaging, samples were diluted with ultrapure water to […] total protein concentration, and […] were pipetted onto freshly cleaved mica and left to dry. The samples were imaged with a Modular scanning probe microscope NTEGRA Prima (NT-MDT) in intermittent contact mode in air using a gold-coated single crystal silicon cantilever (spring constant of ˜5.1 N/m) with a resonance frequency of ˜150 kHz. AFM images were processed with Gwyddion open source software.
row,Structure (SMILES),"αSyn aggregation kinetics (ThT fluorescence, time to half-max)"
1,CC(=O)[O-].[Na+] [sodium acetate],did not expedite the aggregation of human αSyn in vitro
2,CCCC(=O)[O-].[Na+] [sodium butyrate],did not expedite the aggregation of human αSyn in vitro
3,CCC(=O)[O-].[Na+] [sodium propionate],did not expedite the aggregation of human αSyn in vitro
